# Measured values from patent US20140330170A1, “Method of Quantifying Cancer Treatment” (Exelixis, Inc., priority 2012, published 2014).
# Test system: metastatic CRPC patients with bone metastases
# Experiment: Adaptive phase 2 trial (NCT00940225): case studies of the first three CRPC patients with bone metastases treated with compound 1
# Format: in vivo, human
# Excerpt: All patients provided informed consent before study screening.
# [1] = Patient 1, best response, 100 mg dose
# [2] = Patient 2, best response, 100 mg dose
# [3] = Patient 3, best response, 100 mg dose
# [4] = three metastatic CRPC patients, summary
compound,measurement,setting,value
"COc1cc2nccc(Oc3ccc(NC(=O)C4(C(=O)Nc5ccc(F)cc5)CC4)cc3)c2cc1OC [Compound 1, N-(4-{[6,7-bis(methyloxy)quinolin-4-yl]oxy}phenyl)-N′-(4-fluorophenyl)cyclopropane-1,1-dicarboxamide]",PSA,"Patient 1, best response, change from baseline 430.4 ng/mL",−78%
same,Hemoglobin,"Patient 1, best response, change from baseline 13.5 g/dL",+1.4 g/dL
same,tALP,"Patient 1, best response, change from baseline 689 U/L",−77%
same,Pain,[1],Improvement
same,Tumor response,[1],−41%
same,PSA,"Patient 2, best response, change from baseline 14.7 ng/mL",+61%
same,Hemoglobin,"Patient 2, best response, change from baseline 13.3 g/dL",+1.8 g/dL
same,tALP,"Patient 2, best response, change from baseline 108 U/L",−6%
same,Bone scan,[2],Improvement
same,Pain,[2],Pain-free
same,Tumor response,[2],−20%
same,PSA,"Patient 3, best response, change from baseline 2.8 ng/mL",−57%
same,Hemoglobin,"Patient 3, best response, change from baseline 10.2 g/dL",+2.2 g/dL
same,tALP,"Patient 3, best response, change from baseline 869 U/L",−77%
same,Pain,[3],Pain-free
same,Tumor response,[3],−51%
same,soft tissue lesions,"all three patients, during therapy, summary",evidence of response or stabilization in soft tissue lesions
same,bone pain,"all three patients, summary",substantial reductions in bone pain
same,uptake of radiotracer on bone scan,"all three patients, summary",striking decrease in uptake of radiotracer on bone scan
same,bone lesions,[4],near complete resolution of bone lesions
same,bone pain and total serum alkaline phosphatase (tALP) levels,[4],marked reduction in bone pain and total serum alkaline phosphatase (tALP) levels
same,measurable disease,[4],reduction in measurable disease
